Test results: BindingDB's records for doi:10.1016/j.bmcl.2008.12.074 (Boehringer Ingelheim (Canada), 2009)

How the values were obtained:
[1] = target: T1, Gag-Pol polyprotein [588-1027] (Human immunodeficiency virus type 1 group M subtype B (isolate HXB2), UniProt P04585); test: Reverse Transcriptase Assay; settings: pH 7.4; 37 °C
T1 construct: 588-1027

[2] = target: T2, Gag-Pol polyprotein [588-1027,K691N,Y769C]/[588-1147,K691N,Y769C] (Human immunodeficiency virus 1, UniProt P04585, K691N/Y769C); test: Reverse Transcriptase Assay
T2 construct: 588-1027; 588-1147

| Structure (SMILES) | IC50 [1] | IC50 [2] | EC50 [1] |
| --- | --- | --- | --- |
| Cc1ccc(-n2nnnc2SCC(=O)Nc2ccc(-c3ccc(CC(=O)O)cc3)cc2Cl)c(Cl)c1 [2-{4-[3-chloro-4-(2-{[1-(2-chloro-4-methylphenyl)-1H-1,2,3,4-tetrazol-5-yl]sulfanyl}acetamido)phenyl]phenyl}acetic acid] | 0.0024 µM | 0.048 µM | – |
| Cc1ccc(-n2ncc(C)c2SCC(=O)Nc2ccc(-c3ccc(CC(=O)O)cc3)cc2Cl)c(Cl)c1 [2-{4-[3-chloro-4-(2-{[1-(2-chloro-4-methylphenyl)-4-methyl-1H-pyrazol-5-yl]sulfanyl}acetamido)phenyl]phenyl}acetic acid] | > 10 µM | > 10 µM | – |
| Cc1ccc(-c2c(SCC(=O)Nc3ccc(-c4ccc(OCC(=O)O)cc4)cc3Cl)ccn2C)c(Cl)c1 [2-{4-[3-chloro-4-(2-{[2-(2-chloro-4-methylphenyl)-1-methyl-1H-pyrrol-3-yl]sulfanyl}acetamido)phenyl]phenoxy}acetic acid] | > 1 µM | – | – |
| CC(C)(C)c1ccc(-c2c[nH]nc2OCC(=O)Nc2ccc(-c3ccc(CC(=O)O)cc3)cc2Cl)c(Cl)c1 [2-{4-[4-(2-{[4-(4-tert-butyl-2-chlorophenyl)-1H-pyrazol-3-yl]oxy}acetamido)-3-chlorophenyl]phenyl}acetic acid] | > 3.3 µM | – | – |
| Cc1ccc(-n2cc(C)nc2SCC(=O)Nc2ccccc2Cl)c(Cl)c1 [2-{[1-(2-chloro-4-methylphenyl)-4-methyl-1H-imidazol-2-yl]sulfanyl}-N-(2-chlorophenyl)acetamide] | > 1 µM | > 10 µM | – |
| Cc1[nH]nc(OCC(=O)Nc2ccc(C#CC(C)(C)CO)cc2Cl)c1-c1ccc(C(C)(C)C)cc1Cl [2-{[4-(4-tert-butyl-2-chlorophenyl)-5-methyl-1H-pyrazol-3-yl]oxy}-N-[2-chloro-4-(4-hydroxy-3,3-dimethylbut-1-yn-1-yl)phenyl]acetamide] | > 3.3 µM | – | > 5 µM |
